Assay results: paper PMC9123294, “Role of LL-37 in thrombotic complications in patients with COVID-19” (Cellular and Molecular Life Sciences: CMLS, 2022)

How the values were obtained:
Human alpha thrombin = Human alpha thrombin (Homo sapiens, UniProt P00734); experiment: biochemical
Procedure: SPR analysis was performed as described previously, with some modifications. Briefly, thrombin and FXa were immobilized on the activated sensor chip CM-5 by amine coupling. […] The equilibrium dissociation constant (KD) was calculated using the Langmuir model with Biacore evaluation software provided by the manufacturer.

Human factor Xa = target: T1, Human factor Xa (human, UniProt P00742 41-179; P00742 235-488); experiment: SPR; thrombin and FXa immobilised on a CM-5 sensor chip by amine coupling; LL-37 or Cramp flowed in HBS-EP+ running buffer at 30 ul/min; BIAcore 3000; KD from the Langmuir model; conditions: both partners purified
T1 construct: also called FXa; source: bought: Enzyme Research Laboratories (HFXa 1011)
T1 sequence (P00742 41-179, chain 1 of 2): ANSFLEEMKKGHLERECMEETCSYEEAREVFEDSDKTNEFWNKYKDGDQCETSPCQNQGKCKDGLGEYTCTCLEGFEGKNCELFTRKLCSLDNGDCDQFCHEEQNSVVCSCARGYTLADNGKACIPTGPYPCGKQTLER
T1 sequence (P00742 235-488, chain 2 of 2): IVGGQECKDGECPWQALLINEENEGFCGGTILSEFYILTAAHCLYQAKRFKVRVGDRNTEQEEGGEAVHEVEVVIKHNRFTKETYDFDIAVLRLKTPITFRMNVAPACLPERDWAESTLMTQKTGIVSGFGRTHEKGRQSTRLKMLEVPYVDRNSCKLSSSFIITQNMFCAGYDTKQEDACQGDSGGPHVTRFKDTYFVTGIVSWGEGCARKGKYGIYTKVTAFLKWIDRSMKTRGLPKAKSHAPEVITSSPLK

| Molecule | Kd (Human alpha thrombin) [µM] | Kd (Human factor Xa) [µM] |
| --- | --- | --- |
| CC[C@H](C)[C@H](NC(=O)[C@H](CCCCN)NC(=O)[C@H](CCC(=O)O)NC(=O)[C@H](CCCCN)NC(=O)[C@H](CO)NC(=O)[C@H](CCCCN)NC(=O)[C@H](CCCNC(=N)N)NC(=O)[C@H](Cc1ccccc1)NC(=O)[C@H](Cc1ccccc1)NC(=O)[C@H](CC(=O)O)NC(=O)CNC(=O)[C@H](CC(C)C)NC(=O)[C@@H](N)CC(C)C)C(=O)NCC(=O)N[C@@H](CCCCN)C(=O)N[C@@H](CCC(=O)O)C(=O)N[C@@H](Cc1ccccc1)C(=O)N[C@@H](CCCCN)C(=O)N[C@@H](CCCNC(=N)N)C(=O)N[C@H](C(=O)N[C@H](C(=O)N[C@@H](CCC(N)=O)C(=O)N[C@@H](CCCNC(=N)N)C(=O)N[C@H](C(=O)N[C@@H](CCCCN)C(=O)N[C@@H](CC(=O)O)C(=O)N[C@@H](Cc1ccccc1)C(=O)N[C@@H](CC(C)C)C(=O)N[C@@H](CCCNC(=N)N)C(=O)N[C@@H](CC(N)=O)C(=O)N[C@@H](CC(C)C)C(=O)N[C@H](C(=O)N1CCC[C@H]1C(=O)N[C@@H](CCCNC(=N)N)C(=O)N[C@H](C(=O)N[C@@H](CCC(=O)O)C(=O)N[C@@H](CO)C(=O)O)[C@@H](C)O)C(C)C)[C@@H](C)CC)C(C)C)[C@@H](C)CC [LL-37] | 2.64 |  |
| GLLRKGGEKIGEKLKKIGQKIKNFFQKLVPQPE (also called LL-37 homolog from Mus musculus; cathelicidin peptide; source: synthetic peptide (GL Biochem, Shanghai; purity > 98%)) [Cramp] |  | 317 |
